Where two headings read alike, the source gives them in different places. Marks after values point to notes of the source that are not given here.

The conditions of data set [1]: cited from earlier work.
Data set [2] can be described thus: Plasma pharmacokinetics in hemodialysis-dependent subjects, On-dialysis vs Off-dialysis periods. The data set is classed as in vivo, human. The note with it: for AUC(0-inf) / Cmax / AUCinf / CL / VZ / t1/2: single 2 h IV infusion 2 g cefepime + 0.5 g taniborbactam; for AUC(0-inf) / Cmax / AUCinf / CL / VZ: geometric mean (geometric CV %); for t1/2: mean (SD). As for the experimental part: (§1) In addition to the groups enrolled by renal function to study the effect of renal impairment, a group of subjects with ESRD undergoing chronic intermittent hemodialysis were enrolled into a separate group (Group 5; “Dialysis”) to determine the amounts of drug removed by filtration. Hemodialysis used standard commercial dialyzers and membranes. […] A fixed sequence of dialysis timing with respect to dose was used, where the dose was administered prior to dialysis in the first treatment period (“On-dialysis”; Period 1) and administered following dialysis in the second treatment period (“Off-dialysis”; Period 2). […] For the Off-dialysis period, subjects had the SOI begin approximately 6 h after the start of dialysis, which was after the dialysis had been completed.
Additional blood samples, if not already collected by a defined time point, were collected at 1 h after the start of dialysis and again at the end of dialysis.
Human dipotassium ethylenediaminetetraacetic acid plasma samples were processed using protein precipitation prior to assay. Urine samples collected for pharmacokinetic analysis in the study were processed and assayed for only taniborbactam using a validated bioanalytical method. […] Acidified urine and dialysate samples were processed using solid-phase extraction prior to assay. […]
Estimated plasma pharmacokinetic parameters included the Cmax, time to Cmax (Tmax), AUC through the last measurable observed concentration (AUCt), AUCinf, t1/2, CL, and VZ. For taniborbactam, using the urine observations, the amount excreted unchanged in urine (Ae), fraction excreted unchanged in urine as the percentage of administered dose (Fe), renal clearance (CLR), and nonrenal clearance (CLNR) were calculated. The actual sample times were used to calculate the pharmacokinetic parameters. […] If a good estimate of λZ could not be determined for a concentration-time profile, then none of the pharmacokinetic parameters dependent on λZ were calculated.
(§2) For Dialysis subjects (Group 5), the effect of hemodialysis was examined by comparing differences within each subject (On-Dialysis versus Off-Dialysis). The CLd was calculated by taking the individual averaged arterial to venous concentration extraction ratio (CER), multiplying by the reported Qb, and correcting for hematocrit (hct). The hct was estimated as 0.47, an assumption based on the fact that all subjects in the group were male. The amounts of drug removed by hemodialysis (Adial) were calculated using the area under the excretion rate curves, where the rates were determined using the spot dialysis concentrations and estimated dialysate volumes over a 1 min period using the Qd. The fraction of drug removed during hemodialysis, or HER, was then determined by dividing Adial by dose and was expressed as a percentage.

Data set [3] is described as follows: Dialysis parameters (dialysis clearance, hemodialysis extraction ratio). The data set is classed as in vivo, human. As for the experimental part: as §1
Human dipotassium ethylenediaminetetraacetic acid plasma samples were processed using protein precipitation prior to assay. Urine samples collected for pharmacokinetic analysis in the study were processed and assayed for only taniborbactam using a validated bioanalytical method. […] Acidified urine and dialysate samples were processed using solid-phase extraction prior to assay.
(§3) Validated LC-MS/MS methods (LLOQ = 5.00 ng/mL) were used to quantitate the concentrations of taniborbactam in urine.
as §2

For data set [4] the following is noted: human, in vivo.
Description: Subjects aged 18 to 80 years were enrolled into 1 of 4 groups based on the level of renal function (renal groups). […] Subjects in the Normal group were matched to subjects with renal impairment with regard to gender, age (±10 years), and weight (±10 kg). A single healthy subject may have been the match for more than one subject with renal impairment.
Human dipotassium ethylenediaminetetraacetic acid plasma samples were processed using protein precipitation prior to assay. Urine samples collected for pharmacokinetic analysis in the study were processed and assayed for only taniborbactam using a validated bioanalytical method. […]
as §3
Estimated plasma pharmacokinetic parameters included the Cmax, time to Cmax (Tmax), AUC through the last measurable observed concentration (AUCt), AUCinf, t1/2, CL, and VZ. For taniborbactam, using the urine observations, the amount excreted unchanged in urine (Ae), fraction excreted unchanged in urine as the percentage of administered dose (Fe), renal clearance (CLR), and nonrenal clearance (CLNR) were calculated. […] If a good estimate of λZ could not be determined for a concentration-time profile, then none of the pharmacokinetic parameters dependent on λZ were calculated. […]

Data set [5] deals with Ambler Class A, C, and D serine-β-lactamases, and the Ambler class B metallo-β-lactamases. To be noted: including VIM and NDM; cited from earlier work.
Data set [6] can be described thus: Urine pharmacokinetics (renal clearance) of taniborbactam by renal group. The data set is classed as in vivo, human. To be noted: single 2 h IV infusion 2 g cefepime + 0.5 g taniborbactam, geometric mean (geometric CV %). How it is done: Urine was collected to further assess taniborbactam pharmacokinetics. Subjects were instructed to empty their bladders completely before study drug administration and just before the end of each collection interval. Urine from each timed interval was collected in a separate container. The exact start dates, stop dates, times of urine collection, and the weight and volume of each collection were recorded. Urine samples were collected within intervals of 0 to 6 h, 6 to 12 h, 12 to 24 h, 24 to 48 h, 48 to 72 h, and 72 to 96 h following the SOI. […] Urine samples were not collected from anuric subjects.
[…]. […] […].

The nature of data set [7]: Safety and tolerability in subjects with various degrees of renal impairment. The note with it: human, in vivo. How it is done:
Safety was assessed based on the occurrence of adverse events and on the evaluation of laboratory tests (chemistry, hematology, urinalysis, and coagulation), physical examinations, vital signs, and 12-lead ECGs. Safety was followed through 7 days post-dose.

[8] abbreviates: Dialysis group, Off-dialysis (n = 7).
Setting [9] is: Dialysis group, On-dialysis (n = 6).

On to `CO/N=C(\C(=O)N[C@@H]1C(=O)N2C(C(=O)[O-])=C(C[N+]3(C)CCCC3)CS[C@H]12)c1csc(N)n1` [cefepime, Cefepime, reference compound], for which the “amount removed during a hemodialysis session” value in data set [1] (3 h hemodialysis session) is “approximately 68%”. The “dose excreted unchanged in urine” value in data set [1] (following administration of 0.25 to 2 g cefepime) is listed as “at least 80%”. Also, the AUC(0-inf) in data set [2] (male, human, plasma, iv, Dialysis group, Off-dialysis (n = 7)) came out at 4550 µg·h/mL; in data set [2] (male, human, plasma, iv, Dialysis group, On-dialysis (n = 6)) it was 1600 µg·h/mL. Moreover, the Cmax in data set [2] (male, human, plasma, iv, Dialysis group, Off-dialysis (n = 7), read-out: Cmax) turned out to be 165 µg/mL; in data set [2] (male, human, plasma, iv, Dialysis group, On-dialysis (n = 6), read-out: Cmax), 105 µg/mL.

On to `NCCN[C@H]1CC[C@H](CC(=O)N[C@H]2Cc3cccc(C(=O)O)c3OB2O)CC1` [taniborbactam, Taniborbactam], for which, in data set [3] (On-dialysis period, 4 h hemodialysis session), the “hemodialysis extraction ratio (HER), fraction of dose removed during hemodialysis, mean (SD)” value is given as 49.7%. Moreover, in data set [3] (On-dialysis period, 4 h hemodialysis, Qb 350 to 450 mL/min), the “dialysis clearance (CLd), mean (SD)” value is on record as 102 (5.3) mL/min. In data set [3] (hemodialysis), the dialyzability result is “dialyzable”. Also, the “VZ least-square geometric mean ratio (90% CI)” value in data set [4] amounted to 149.94%. The β-lactamase inhibition entry in data set [5] was “potent competitive inhibition”. Moreover, the CLR in data set [6] (Mild renal impairment (n = 6)) is recorded as 4.23 (22.7) L/h. For the same compound, in data set [6] (Moderate renal impairment (n = 6)), the CLR is 1.59 (21.0) L/h. Also, the CLR in data set [6] (Normal renal function (n = 7)) is 4.37 (17.8)^d L/h. Further, the CLR in data set [6] (Severe renal impairment (n = 6)) is 0.76 (120.3) L/h. Besides, in data set [1] (at steady-state), the “dose recovered in urine as unchanged parent compound” value is “approximately 89%”. For the same compound, in data set [2] (setting [8]), the AUCinf is 2003 (32.1) h·μg/mL, the CL is listed as 0.245 (29.8) L/h, the Cmax is recorded as 37.7 (73.7) μg/mL and the VZ is on record as 23.7 (13.4) L. Also, the t1/2 in data set [2] (setting [8]) was 70.8 (22.3) h. Further, in data set [2] (setting [9]), the AUCinf is listed as 851 (23.0) h·μg/mL, the CL is 0.579 (23.0) L/h, the Cmax is on record as 23.4 (9.5) μg/mL and the VZ is on record as 68.1 (15.1) L. In addition, in data set [2] (setting [9]), the t1/2 is recorded as 83.7 (21.5) h. Besides, the “decrease in geometric mean AUC following hemodialysis” value in data set [2] (Dialysis group, On-dialysis vs Off-dialysis) is given as 58%. Further, the “AUCinf least-squares GMR (90% CI)” value in data set [2] (On-dialysis/Off-dialysis) is recorded as 39.29%.

Turning to cefepime-taniborbactam, in data set [7], the “adverse events considered related to treatment” value is listed as 7 of 8, the “adverse events mild in severity” value was 7 of 8, the deaths entry is recorded as “no deaths” and the “number of treatment emergent adverse events” value is reported as 8. Further, in data set [7], the serious adverse events result was “No subjects experienced serious adverse events” and the “subjects who experienced treatment emergent adverse events” value turned out to be 7 subjects.

The values above are taken from publication PMC9487543 (Antimicrobial Agents and Chemotherapy, 2022).
